Assay results reported in the SangsterLogP compilation.

logP | SMILES
6.85 | Brc1cc(Br)c2ccc3cccc4ccc1c2c43
2.23 | NC(=O)c1c2ccccc2cc2ccccc12
5.81 | Brc1ccc2ccc3cccc4ccc1c2c34
4.16 | CC(=O)c1cc2cccc3ccc4cccc1c4c32
6.69 | Brc1ccc2ccc3c(Br)ccc4ccc1c2c43
4.18 | CC(=O)c1ccc2ccc3cccc4ccc1c2c34
4.36 | COc1c2ccccc2cc2ccccc12
3.6 | CC(=O)c1c2ccccc2cc2ccccc12
5.8 | Brc1cc2ccc3cccc4ccc(c1)c2c34
5.84 | Brc1cc2cccc3ccc4cccc1c4c32
3.77 | O=Cc1c2ccccc2cc2ccccc12
4.85 | COC(=O)c1cc2ccc3cccc4ccc(c1)c2c34
3.83 | COC(=O)c1c2ccccc2cc2ccccc12

Second part, the compound before the results:

SMILES | logP
Brc1c2ccccc2c(Br)c2ccccc12 | 6.29
O=C1c2ccccc2C(=O)c2ccccc21 | 3.28
N#Cc1c2ccccc2cc2ccccc12 | 3.98
CC(=O)c1cc2ccc3cccc4ccc(c1)c2c34 | 4.29
COC(=O)c1ccc2ccc3cccc4ccc1c2c34 | 4.73
Brc1c2ccccc2cc2ccccc12 | 5.37
O=Cc1ccc2ccc3cccc4ccc1c2c34 | 4.23
Clc1c2ccccc2cc2ccccc12 | 5.27
Brc1ccc2ccc3ccc(Br)c4ccc1c2c34 | 6.73
